In patent US20130203718A1 (priority 2010, published 2013):

Key:
hPRB = target: T1, hPRB (Homo sapiens, UniProt P06401); experiment: PR transactivation assay (GRE2-Luc) in HEK293T cells transiently expressing hPRB; type: cell-based; design: expressed in transfected cells; host or cells: HEK 293T; details: APRn 1 μM
T1 sequence (P06401 1-933): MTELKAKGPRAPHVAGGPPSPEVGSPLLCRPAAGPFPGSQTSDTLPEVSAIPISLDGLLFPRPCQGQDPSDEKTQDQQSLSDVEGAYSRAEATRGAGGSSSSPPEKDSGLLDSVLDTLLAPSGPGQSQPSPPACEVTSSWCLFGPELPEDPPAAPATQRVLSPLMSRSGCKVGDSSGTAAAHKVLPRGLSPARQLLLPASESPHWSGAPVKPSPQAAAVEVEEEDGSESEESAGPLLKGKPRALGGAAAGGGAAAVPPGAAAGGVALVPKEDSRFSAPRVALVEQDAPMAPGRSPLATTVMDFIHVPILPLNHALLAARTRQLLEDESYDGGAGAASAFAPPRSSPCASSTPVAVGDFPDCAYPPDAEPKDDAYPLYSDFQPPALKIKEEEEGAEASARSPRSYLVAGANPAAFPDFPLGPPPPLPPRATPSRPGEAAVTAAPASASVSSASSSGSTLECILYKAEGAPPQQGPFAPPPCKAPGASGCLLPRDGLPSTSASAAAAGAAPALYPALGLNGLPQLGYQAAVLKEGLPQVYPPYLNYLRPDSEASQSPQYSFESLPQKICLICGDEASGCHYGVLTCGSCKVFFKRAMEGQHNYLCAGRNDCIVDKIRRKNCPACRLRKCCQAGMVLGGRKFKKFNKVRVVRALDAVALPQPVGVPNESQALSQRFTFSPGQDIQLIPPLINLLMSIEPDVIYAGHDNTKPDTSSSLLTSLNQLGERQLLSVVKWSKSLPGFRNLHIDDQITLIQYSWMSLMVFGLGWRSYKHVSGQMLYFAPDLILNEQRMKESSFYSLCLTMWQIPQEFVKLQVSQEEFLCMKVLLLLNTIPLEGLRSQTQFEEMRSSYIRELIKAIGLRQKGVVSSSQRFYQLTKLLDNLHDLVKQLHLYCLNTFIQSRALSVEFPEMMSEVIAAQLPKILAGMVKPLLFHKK
Procedure: PR Transactivation Assays in HEK 293T.
HEK 293T cells were routinely cultured in a high-glucose DMEM medium (Invitrogene, Cergy Pontoise, France), 20 mM HEPES, 2 mM glutamine, 1× non essential amino acids, 100 U/mL penicillin and 100 μg/mL streptomycin supplemented with 10% foetal calf serum (FCS) in a humidified atmosphere at 37° C. and with 5% CO2. One day before transfection, the cells were seeded at 3×10^6 cells/[…] diameter culture Petri dish and cultured overnight in the same medium. Six hours before transfection, the FCS supplemented medium was replaced by the same medium supplemented with 10% dextran-charcoal treated FCS. Transfections were carried out using the calcium phosphate precipitation method. The calcium phosphate precipitate was prepared with 0.5 μg pchPRB (Petit-Topin, et al Mol Pharmacol, 2009, 75, 1317), 7 μg reporter vector (GRE2-Luc from A. Biola-Vidamment and M. Pallardy) and 1 μg of pcβgal for an internal transfection control, in 1 mL 140 mM NaCl, 0.75 mM Na2HPO4, 25 mM HEPES, 125 mM CaCl2 pH 7.05 and added to the cells 30 minutes later. After 16 h incubation, the transfected cells were washed with PBS containing 2.5 mM EDTA, trypsinized and pooled. The transfected cells were replated in 24-well plates (100.000 transfected cells/well). […] Cells were lysed in 300 μl PBS 1×, 25 mM glycylglycine, 4 mM EDTA, 15% glycerol, 1% triton X-100, 15 mM MgSO4, pH 7.8 supplemented with 2 mM β-mercaptoethanol. The luciferase activities were quantified by using a Mithras LB940 reader microplates (Berthold).
The APRn “agonist efficacy” was determined from the following formula:
Agonist efficacy=[luciferase activity]1/[luciferase activity]2×100
The APRn “antagonist efficacy” was calculated from the following formula:
Antagonist efficacy=100−[luciferase activity]1/[luciferase activity]2×100
The results are the mean±SEM of three to five independent experiments.
All the synthesized APRn were classified in 4 series depending on the nature of their C3 substituent (R1/R′1 groups). The first one (series 1) includes APRn with no C3 substituent (R1═R′1═H) whereas series 2, 3 and 4 are related to APRn bearing a methoxyl (R1═OMe), a hydroxyl (R1═OH) and a fluorine atom (R1═F), respectively. The agonist/antagonist activities of APRn were determined either in human HEK293T cells transiently expressing hPRB or in human MDA-MB-231 iPRAB cells conditionally expressing hPRB, by using a luciferase reporter gene placed under the control of a glucocorticoid response element (GRE2-Luc). The APRn “agonist efficacy” was determined from the luciferase activity measured in the presence of APRn (1 μM). […] The “agonist efficacy” and “antagonist efficacy” are expressed as defined in the biological protocols section.

[1] = series 2-4, stated for both HEK293T and MDA-MB-231 iPRAB cells, FIGS. 3-8

| Structure (SMILES) | hPRB agonist/antagonist character (in words) (hPRB; [1]) | melting point | hPRB agonist/antagonist character (in words) (hPRB; series 1 (no C3 substituent), HEK293T, FIG. 1) |
| --- | --- | --- | --- |
| C#CC(C)(O)[C@H]1CC[C@H]2[C@@H]3CC=C4C[C@@H](OC)CC[C@]4(C)[C@H]3CC[C@]12C (stereo partly drawn) [APR-31, 20-Ethynyl-3β-methoxypregn-5-en-20-ol] | antagonist character without any agonist activity | 175 to 176 °C | – |
| C#C[C@]1(O)CCC2C3CC[C@H]4CCCC[C@]4(C)C3CC[C@@]21C (stereo partly drawn) [APR-32, 17α-Ethynyl-5α-androstan-17β-ol] | – | 152 to 153 °C | full antagonists |
| C[C@]12CC[C@H](F)CC1=CC[C@@H]1[C@@H]2CC[C@]2(C)C(=O)CC[C@@H]12 [APR-33, 3β-Fluoroandrost-5-en-17-one] | efficient hPRB antagonists | 155 to 156 °C | – |
| C#C[C@]1(O)CCC2C3CC=C4C[C@@H](F)CC[C@]4(C)C3CC[C@@]21C (stereo partly drawn) [APR-34, 17α-Ethynyl-3β-fluoro-androst-5-en-17β-ol] | efficient hPRB antagonists | 219 to 220 °C | – |
| C[C@]12CC[C@H](F)C[C@@H]1CC[C@@H]1[C@@H]2CC[C@]2(C)C(=O)CC[C@@H]12 [APR-35, 3β-Fluoro-5α-androstan-17-one] | efficient hPRB antagonists | 126 to 127 °C | – |
| C#C[C@]1(O)CCC2C3CC[C@H]4C[C@@H](F)CC[C@]4(C)C3CC[C@@]21C (stereo partly drawn) [APR-36, 17α-Ethynyl-3β-fluoro-5α-androstan-17β-ol] | efficient hPRB antagonists | 225 to 226 °C | – |
| CC(=O)O[C@H]1CCC2C3CC=C4C[C@@H](F)CC[C@@H]4C3CC[C@@]21C (stereo partly drawn) [APR-45, 17β-Acetoxy-3β-fluoro-19-nor-androst-5-ene] | efficient hPRB antagonists | 104 to 105 °C | – |
| C[C@]12CCC3C(CC=C4C[C@@H](F)CC[C@@H]43)C1CC[C@@H]2O (stereo partly drawn) [APR-46, 31-Fluoro-19-nor-androst-5-en-17β-ol] | efficient hPRB antagonists | 121 to 122 °C | – |
